Source: PMC4678810 (Nucleic Acids Research, 2015)

Tests used:
YlTrm9N19-Trm112 = YlTrm9N19-Trm112 (Yarrowia lipolytica, UniProt Q6C999)
YlTrm9N38-Trm112 = YlTrm9N38-Trm112 (Yarrowia lipolytica, UniProt Q6C999)
[1] = target: YlTrm9-Trm112 (full-length) (Yarrowia lipolytica, UniProt Q6C999)
YlTrm9-Trm112 (full-length), sequence (Q6C999 1-234): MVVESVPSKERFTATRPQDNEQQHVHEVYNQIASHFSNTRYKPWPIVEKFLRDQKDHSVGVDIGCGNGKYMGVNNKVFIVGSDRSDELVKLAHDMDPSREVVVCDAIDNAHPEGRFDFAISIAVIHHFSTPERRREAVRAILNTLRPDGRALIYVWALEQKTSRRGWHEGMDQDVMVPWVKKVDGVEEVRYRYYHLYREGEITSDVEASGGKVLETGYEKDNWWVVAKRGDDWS
YlTrm9-Trm112 (full-length), sequence (Q6C4P5 1-130 partner): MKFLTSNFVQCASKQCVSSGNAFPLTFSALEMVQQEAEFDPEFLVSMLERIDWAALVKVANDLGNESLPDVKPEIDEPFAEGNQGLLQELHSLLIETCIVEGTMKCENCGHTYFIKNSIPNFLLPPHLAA

YlTrm9N19-Trm112, sequence (Q6C999 19-234): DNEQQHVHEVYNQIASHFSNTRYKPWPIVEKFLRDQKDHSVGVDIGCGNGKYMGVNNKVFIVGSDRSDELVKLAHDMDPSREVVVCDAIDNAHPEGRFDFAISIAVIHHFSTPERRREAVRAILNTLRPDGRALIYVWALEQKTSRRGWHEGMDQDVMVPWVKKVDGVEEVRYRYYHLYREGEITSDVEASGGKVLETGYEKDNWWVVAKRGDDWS
YlTrm9N19-Trm112, sequence (Q6C4P5 1-130 partner): as the sequence (Q6C4P5 1-130 partner) above
YlTrm9N38-Trm112, sequence (Q6C999 38-234): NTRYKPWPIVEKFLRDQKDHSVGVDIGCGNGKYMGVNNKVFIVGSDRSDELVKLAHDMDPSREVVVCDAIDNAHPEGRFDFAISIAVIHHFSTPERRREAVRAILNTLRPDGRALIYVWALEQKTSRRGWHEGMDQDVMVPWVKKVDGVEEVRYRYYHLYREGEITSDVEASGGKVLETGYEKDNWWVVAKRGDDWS
YlTrm9N38-Trm112, sequence (Q6C4P5 1-130 partner): as the sequence (Q6C4P5 1-130 partner) above

C[S+](CC[C@H](N)C(=O)O)C[C@H]1O[C@@H](n2cnc3c(N)ncnc32)[C@H](O)[C@@H]1O (stereo partly drawn) [SAM]
affinity for SAM (YlTrm9N19-Trm112): both truncated forms were strongly affected in their enzymatic activity
affinity for SAM (YlTrm9N38-Trm112): displayed the same affinity for SAM
affinity for SAM [1]: displayed the same affinity for SAM
